Key:
Type in all cases: in vivo, human
[1] = tested on: Lipoprotein-associated phospholipase A2; assay: Lipoprotein-associated phospholipase A2, change from baseline to end of study, trial of Example 1
Description: (§1) Oral testosterone therapy was evaluated in a multicenter, phase 3, randomized, open-label, active controlled, parallel-group study that included a 13-week efficacy phase and a 52-week safety phase. An active arm in which subjects received T gel was included for safety evaluation only.
(§2) Subjects were randomized in a 2:1 ratio to oral testosterone undecanoate or T gel. oral testosterone undecanoate subjects started at a dose of 225 mg TU (“testosterone undecanoate”) taken twice daily (total daily dose: 450 mg TU) every 12 hours. For optimal lymphatic absorption oral testosterone undecanoate must be administered with a meal. Therefore, subjects were instructed to administer oral testosterone undecanoate after a standard meal (defined as a meal consisting of 800 to 1400 calories with approximately 20% to 35% fat content). The oral testosterone undecanoate dose was titrated at Weeks 4 and 8, if necessary, based on results of intensive 24-hour PK blood sampling obtained at Weeks 3 and 7, respectively. Oral testosterone undecanoate subjects stayed at the clinic overnight during each intensive PK blood sampling period. […] Oral testosterone undecanoate dose levels permitted during the study were 150 mg BID, 225 mg BID, and 300 mg BID. Data collected during an intensive 24-hour PK sampling overnight stay at Week 13 were used for efficacy analysis; dose was not adjusted at this visit. Additional outpatient visits were conducted at Weeks 26, 39, and 52 during which single blood draws were performed 3 to 6 hours post morning dose. Dose was not adjusted during these visits.
(§3) T gel (ANDROGEL®) (testosterone gel for topical use) 1.62%, AbbVie, Chicago, Illinois, US) was supplied in non-aerosol, metered dose pumps that deliver 20.25 mg T per complete pump actuation. T gel was dosed according to product labeling. Subjects receiving T gel completed outpatient visits at Weeks 2 and 4 with single blood draws to determine titration and at Weeks 3 and 5 for dose changes, if necessary. They also completed an outpatient visit at Week 7 for safety assessments and at Weeks 13, 26, 39 and 52 during which single blood samples were obtained 3 to 6 hours after the morning dose. Dose was not adjusted during these visits. Overnight clinic stays were not required for T gel subjects.
(§4) Safety endpoints included adverse events (AEs), physical examination findings, vital signs, electrocardiograms (ECGs), and clinical laboratory tests. AEs were classified using the Medical Dictionary for Regulatory Activities (Version 16.1). Safety endpoints were summarized using descriptive statistics. Lab parameters were evaluated using two sample t-tests comparing change from baseline to end of study (EOS) across oral testosterone undecanoate and T gel subjects with p-values <0.05 considered statistically significant.

liver function enzymes = assay: Liver function enzymes (ALT, AST, ALP, GGT, bilirubin), change from baseline to end of study, trial of Example 1
Description: as §1, §2, §3, §4

liver fat = assay: Liver Fat Study: liver fat by MRI-PDFF in hypogonadal males treated with LPCN 1144 (Example 6); conditions: for Mean relative liver fat % change: 16 weeks of treatment
Description: In an a prospective design open-label, multi-center, single arm ‘Liver Fat Study’ evaluating LPCN 1144 (oral testosterone undecanoate) treatment in hypogonadal patients, baseline % liver fat was assessed via MRI-PDFF in a subset of study patients (N=36).
(§5) This example is part of an ongoing Liver Fat Study which is an open-label, multi-center, single arm study evaluating LPCN 1144 treatment (e.g., androgen therapy, testosterone therapy, oral testosterone ester, or 225 mg testosterone undecanoate orally) in a cohort of 36 hypogonadal males (NCT03868059). Subjects with at least 10% baseline liver fat were evaluated which is indicative of subjects with NAFLD with the potential to have NASH. Interim results of seven of the nine subjects in the Liver Fat Study with baseline liver fat of at least 10% are presented as two subjects were unable to schedule an eight-week MRI-PDFF visit. Baseline mean liver fat of these seven subjects was 21.0%.
(§6) An MRI-PDFF study of 36 male hypogonadal subjects (having 2 morning testosterone levels of 300 ng/dL or less) was performed as part of an ongoing trial. Basic baseline labs including liver function tests (e.g., AST & ALT) and serum triglycerides were collected and analyzed. It was found by non-linear regression, that BMI (ALT, AST, serum Triglyceride) was associated with liver fat (P<0.006). It was found by non-linear regression, that serum triglyceride levels (obesity, hypertension, type 2 diabetes) were associated with liver fat (P<0.006).

[2] = Serum DHT, DHT/T ratio, E2 and calculated free T, hormone assessment in trial of Example 1; conditions: for ratio of DHT/T based on Cavg0-24 h / ratio of DHT/T based on Cmax: normal range 0.05 to 0.33
Description: as §2
(§7) Serum levels of T, TU, dihydrotestosterone (DHT), dihydrotestosterone undecanoate (DHTU), and estradiol (E2) were evaluated in oral testosterone undecanoate treated subjects. […] Sex hormone binding globulin (SHBG) was evaluated in data from all subjects. Serum T concentrations at screening were measured using chemiluminescence immunoassay kits. Hormone assays for pharmacokinetic assessment were analyzed at PPD Bioanalytical Laboratory in Richmond, Virginia Serum samples were analyzed for T, DHT, TU, DHTU, and E2 using a validated liquid chromatography-tandem mass spectrometry (LC-MS/MS) assay.

[3] = tested on: ALT, GGT, BUN, total cholesterol, LDL-C, triglyceride; assay: Liver Fat Study: normalization of labs (ALT, GGT, BUN, total cholesterol, LDL-C, triglyceride) at end of study (Example 6)
Description: as §5, §6

[4] = Serum testosterone pharmacokinetics (24-hour PK sampling, LC-MS/MS), phase 3 oral testosterone undecanoate trial of Example 1; conditions: for Average serum T levels: single blood draw 3 to 6 hours post morning dose
Description: as §1
Males 18 through 80 years old with a documented diagnosis of primary hypogonadism (congenital or acquired) or hypogonadotropic hypogonadism (congenital or acquired) and with morning serum T<300 ng/dL based on 2 consecutive blood samples obtained between 0600 and 1000 on 2 separate days at approximately the same time were eligible to participate. Subjects were either naïve to T therapy or completed an adequate washout of T therapy (eg, 12 weeks after intramuscular androgen injections excluding TU injections which required a longer waiting period; 4 weeks after topical or buccal androgens; and 3 weeks after oral androgens). Exclusion criteria included abnormal prostate digital rectal examination with palpable nodule(s) or International Prostate Symptom Score (IPSS)>19 points; body mass index ≥38 kg/m^2, clinically significant laboratory values (baseline hemoglobin <11.5 or >16.5 g/dL, hematocrit <35% or >54%, serum transaminases >2.5 times upper limit of normal, serum bilirubin >2.0 mg/dL, creatinine >2.0 mg/dL, prostate specific antigen [PSA]>2 ng/mL, prolactin >17.7 ng/mL); history of seizures or convulsions; any surgical procedure that might interfere with gastrointestinal motility, pH, or absorption; stroke or myocardial infarction within 5 years; current or suspected prostate or breast cancer; severe, untreated, obstructive sleep apnea; long QT syndrome or unexplained sudden death in first-degree relative; concurrent medication use that could impact absorption, distribution, metabolism, or excretion of TU or place subject at risk for treatment with T; and dose changes of antihypertensive, lipid-lowering, or hypoglycemic agents within previous 3 months.
as §2, §7

SHBG = assay: Sex hormone binding globulin (SHBG) levels, trial of Example 1
Description: as §1
Subjects were randomized in a 2:1 ratio to oral testosterone undecanoate or T gel. oral testosterone undecanoate subjects started at a dose of 225 mg TU (“testosterone undecanoate”) taken twice daily (total daily dose: 450 mg TU) every 12 hours. For optimal lymphatic absorption oral testosterone undecanoate must be administered with a meal. […]
as §7

C-Reactive Protein = assay: C-Reactive Protein, change from baseline to end of study, trial of Example 1; conditions: Safety Set; subjects with CRP values > 95.23 excluded
hematocrit, hemoglobin = assay: Androgenic parameters (hematocrit, hemoglobin), change from baseline to end of study, safety set, trial of Example 1
Description: as §1, §2, §3, §4

lipids = assay: Lipid parameters (HDL, LDL, total cholesterol, triglycerides, non-HDL cholesterol), change from baseline to end of study, trial of Example 1
Description: as §1, §2, §3, §4

[5] = 4th quartile patients based on lab parameter level, 1 Year Oral TU Study
[6] = Safety Set, baseline to end of study
[7] = 4th quartile patients based on lab parameter level, 1 year study
[8] = interim, eight-week MRI-PDFF, seven subjects with baseline liver fat of at least 10%

## CCCCCCCCCCC(=O)O[C@H]1CC[C@H]2[C@@H]3CCC4=CC(=O)CC[C@]4(C)[C@H]3CC[C@]12C [oral testosterone undecanoate, testosterone undecanoate]
[1]; [5]
  Lp-PLA2, mean change from baseline: -47.8 ng/mL
  Lp-PLA2, mean change from baseline, %: −17.1%
[1]; [6]
  Lp-PLA2, mean (SD) change from baseline to end of study: −9.6 (42.07) ng/mL
[1]; difference in change between groups not significant
  Lipoprotein-associated phospholipase A2, baseline to EOS: decreased significantly
Liver function enzymes; [7]
  ALP, mean change from baseline: −10.2 U/L
  ALP, mean change from baseline, %: −10.4%
  ALT, mean change from baseline: −10.0 U/L
  ALT, mean change from baseline, %: −16.7%
  AST, mean change from baseline: -6.3 U/L
  AST, mean change from baseline, %: −16.6%
  Albumin, mean change from baseline: -2.5 g/L
  Albumin, mean change from baseline, %: −3.1%
  Bilirubin, mean change from baseline: -0.18 mg/dL
  Bilirubin, mean change from baseline, %: −20.5%
  Creatinine, mean change from baseline: 0.01 mg/dL
  Creatinine, mean change from baseline, %: 0.8%
  GGT, mean change from baseline: −7.0 U/L
  GGT, mean change from baseline, %: −7.4%
Liver function enzymes; [6]
  ALT, mean (SD) change from baseline to end of study: −3.07 (11.22) U/L
  AST, mean (SD) change from baseline to end of study: −1.5 (7.52) U/L
  Alkaline phosphatase, mean (SD) change from baseline to end of study: −4.1 (13.33) U/L
  Bilirubin, mean (SD) change from baseline to end of study: −0.43 (3.66) mcmol/L
  GGT, mean (SD) change from baseline to end of study: −2.0 (12.50) U/L
Liver fat; baseline liver fat of 8% or greater
  Mean relative liver fat % change: −42%
Liver fat; baseline liver fat of 10% or greater
  Mean relative liver fat % change: −40%
Liver fat; subjects having NAFLD (baseline liver fat of 5% or greater)
  Mean relative liver fat % change: −33%
Liver fat; end of study
  NAFLD resolved (baseline liver fat greater than or equal to 5% going to less than 5% at end of study), % of subjects: 48%
  mean relative liver fat change in patients with NAFLD resolution: −55%
Liver fat; end of study, greater than or equal to 5% baseline liver fat
  responder rate (% of patients with at least a 30% relative reduction in liver fat from baseline): 71%
Liver fat; end of study, greater than or equal to 8% baseline liver fat
  responder rate (% of patients with at least a 30% relative reduction in liver fat from baseline): 80%
Liver fat; end of study, greater than or equal to 10% baseline liver fat
  responder rate (% of patients with at least a 30% relative reduction in liver fat from baseline): 70%
Liver fat; [8]
  relative mean liver fat reduction from baseline: 38%
  responder rate: at least a 4.1% absolute reduction in liver fat from baseline: 86%
  responder rate: at least a 29% reduction in liver fat from baseline: 71%
Liver fat; interim, eight-week MRI-PDFF, seven subjects with baseline liver fat of at least 10%, baseline mean 21.0%
  absolute mean reduction from baseline of liver fat (MRI-PDFF): 7.6%
[2]; Week 3
  ratio of DHT/T based on Cavg0-24 h: 0.24
  ratio of DHT/T based on Cmax: 0.16
[2]; Week 7
  ratio of DHT/T based on Cavg0-24 h: 0.26
  ratio of DHT/T based on Cmax: 0.18
[2]; Week 13
  ratio of DHT/T based on Cavg0-24 h: 0.26
  ratio of DHT/T based on Cmax: 0.18
[2]; normal values 9 to 30 ng/dL
  Calculated free T levels: consistently within normal values
[3]
  normalization rate for LDL-C: 50%
  normalization rate for total cholesterol: 29%
  normalization rate for triglyceride: 21%
  subjects with BUN normalization: 60%
  subjects with above normal GGT levels who ended the study with normal GGT levels: 0%
[3]; mean baseline ALT 48.7
  subjects with above normal ALT levels who ended the study with normal ALT levels: 100%
[4]; Week 13
  serum T Cavg0-24 h: 446 ng/dL
  serum T Cmax: 1134 ng/dL
[4]; Week 13, 95% lower bound CI: 81.7%, met predefined efficacy criteria
  subjects with serum T Cavg0-24 h between 300 and 1140 ng/dL: 87.4%
[4]; Week 26
  Average serum T levels: 481 ± 371 ng/dL
[4]; Week 39
  Average serum T levels: 543 ± 438 ng/dL
[4]; Week 52
  Average serum T levels: 538 ± 545 ng/dL
SHBG; Week 13 (largest decrease)
  SHBG change from baseline: -11.75 nmol/L
SHBG; each post-baseline visit
  Mean SHBG levels: decreased
C-Reactive Protein
  C-Reactive Protein, mean (SD) change from baseline to end of study: −4.68 (30.94) nmol/L
hematocrit, hemoglobin; 52-week safety phase
  Elevated hematocrit (>54%), number of subjects: 8 subjects
  subjects withdrawn for elevated hematocrit (>54%): 1.4%
hematocrit, hemoglobin; Safety Set, N = 314, baseline to end of study
  Hematocrit, mean (SD) change from baseline to end of study: 2.54 (3.41) %
hematocrit, hemoglobin; [6]
  APTT, mean (SD) change from baseline to end of study: 0.61 (4.07)
  Hemoglobin, mean (SD) change from baseline to end of study: 7.2 (10.65) g/L
  PSA, mean (SD) change from baseline to end of study: 0.27 (0.97) mcg/L
  Platelets, mean (SD) change from baseline to end of study: 8.5 (31.34) 10^9/L
  Prothrombin time, mean (SD) change from baseline to end of study: 0.31 (1.14) sec
hematocrit, hemoglobin; in vivo
  hemoglobin, pretreatment to EOS: Small and similar increases
lipids; [5]
  LDL-C, mean change from baseline: -10.2 mg/dL
  LDL-C, mean change from baseline, %: −6.1%
  Non-HDL-C, mean change from baseline: -18.2 mg/dL
  Non-HDL-C, mean change from baseline, %: −8.7%
  Total Cholesterol, mean change from baseline: -20.2 mg/dL
  Total Cholesterol, mean change from baseline, %: −7.9%
  Triglycerides, mean change from baseline: -85.1 mg/dL
  Triglycerides, mean change from baseline, %: −19.0%
lipids; [6]
  Cholesterol, mean (SD) change from baseline to end of study: -0.24 (0.82) mmol/L
  HDL cholesterol, mean (SD) change from baseline to end of study: −0.14 (0.22) mmol/L
  LDL cholesterol, mean (SD) change from baseline to end of study: −0.05 (0.66) mmol/L
  Triglyceride, mean (SD) change from baseline to end of study: −0.18 (1.14) mmol/L
lipids; compared with T gel
  Serum HDL cholesterol decrease at EOS: significantly larger decrease
lipids; in vivo
  HDL cholesterol: subjects with a shift from normal at baseline to low at EOS: 19.0%
lipids; lipid parameters other than HDL cholesterol
  other lipid parameters, difference between oral testosterone undecanoate and T gel: No statistically significant differences

— patent US12150945B2, “Liver disease” (Lipocine Inc., priority 2018, dated 2024)
